Where two headings read alike, the source gives them in different places.
Format: in vivo, Japanese patients

## COc1cc2ncnc(Nc3ccc(F)c(Cl)c3)c2cc1NC(=O)/C=C/CN1CCCCC1 [dacomitinib, Dacomitinib]
15 mg QD (n = 3), G3
  Nausea, number of patients with treatment-related AE: 0
  Palmar–plantar erythrodysesthesia, number of patients with treatment-related AE: 0
  Paronychia, number of patients with treatment-related AE: 0
  Proteinuria, number of patients with treatment-related AE: 0
  Rash, number of patients with treatment-related AE: 0
  Skin fissures, number of patients with treatment-related AE: 0
  Stomatitis, number of patients with treatment-related AE: 0
  Weight decreased, number of patients with treatment-related AE: 0
30 mg QD (n = 3), All
  Alanine aminotransferase increased, number of patients with treatment-related AE: 0
  Aspartate aminotransferase increased, number of patients with treatment-related AE: 0
  Blood bilirubin increased, number of patients with treatment-related AE: 0
  Cheilitis, number of patients with treatment-related AE: 1
  Conjunctivitis, number of patients with treatment-related AE: 1
  Decreased appetite, number of patients with treatment-related AE: 1
  Diarrhea, number of patients with treatment-related AE: 3
  Dry skin, number of patients with treatment-related AE: 1
  ECG QT prolonged, number of patients with treatment-related AE: 0
  Edema, number of patients with treatment-related AE: 0
  Fatigue, number of patients with treatment-related AE: 1
  Hematuria, number of patients with treatment-related AE: 0
  Hypertrichosis, number of patients with treatment-related AE: 0
  Leukopenia, number of patients with treatment-related AE: 0
  Nausea, number of patients with treatment-related AE: 1
  Palmar–plantar erythrodysesthesia, number of patients with treatment-related AE: 2
  Paronychia, number of patients with treatment-related AE: 2
  Proteinuria, number of patients with treatment-related AE: 0
  Rash, number of patients with treatment-related AE: 3
  Skin fissures, number of patients with treatment-related AE: 0
  Stomatitis, number of patients with treatment-related AE: 2
  Weight decreased, number of patients with treatment-related AE: 1
30 mg QD (n = 3), G1
  Alanine aminotransferase increased, number of patients with treatment-related AE: 0
  Aspartate aminotransferase increased, number of patients with treatment-related AE: 0
  Blood bilirubin increased, number of patients with treatment-related AE: 0
  Cheilitis, number of patients with treatment-related AE: 1
  Conjunctivitis, number of patients with treatment-related AE: 1
  Decreased appetite, number of patients with treatment-related AE: 0
  Diarrhea, number of patients with treatment-related AE: 3
  Dry skin, number of patients with treatment-related AE: 0
  ECG QT prolonged, number of patients with treatment-related AE: 0
  Edema, number of patients with treatment-related AE: 0
  Fatigue, number of patients with treatment-related AE: 0
  Hematuria, number of patients with treatment-related AE: 0
  Hypertrichosis, number of patients with treatment-related AE: 0
  Leukopenia, number of patients with treatment-related AE: 0
  Nausea, number of patients with treatment-related AE: 1
  Palmar–plantar erythrodysesthesia, number of patients with treatment-related AE: 0
  Paronychia, number of patients with treatment-related AE: 0
  Proteinuria, number of patients with treatment-related AE: 0
  Rash, number of patients with treatment-related AE: 1
  Skin fissures, number of patients with treatment-related AE: 0
  Stomatitis, number of patients with treatment-related AE: 1
  Weight decreased, number of patients with treatment-related AE: 0
30 mg QD (n = 3), G2
  Alanine aminotransferase increased, number of patients with treatment-related AE: 0
  Aspartate aminotransferase increased, number of patients with treatment-related AE: 0
  Blood bilirubin increased, number of patients with treatment-related AE: 0
  Cheilitis, number of patients with treatment-related AE: 0
  Conjunctivitis, number of patients with treatment-related AE: 0
  Decreased appetite, number of patients with treatment-related AE: 1
  Diarrhea, number of patients with treatment-related AE: 0
  Dry skin, number of patients with treatment-related AE: 1
  ECG QT prolonged, number of patients with treatment-related AE: 0
  Edema, number of patients with treatment-related AE: 0
  Fatigue, number of patients with treatment-related AE: 1
  Hematuria, number of patients with treatment-related AE: 0
  Hypertrichosis, number of patients with treatment-related AE: 0
  Leukopenia, number of patients with treatment-related AE: 0
  Nausea, number of patients with treatment-related AE: 0
  Palmar–plantar erythrodysesthesia, number of patients with treatment-related AE: 2
  Paronychia, number of patients with treatment-related AE: 2
  Proteinuria, number of patients with treatment-related AE: 0
  Rash, number of patients with treatment-related AE: 2
  Skin fissures, number of patients with treatment-related AE: 0
  Stomatitis, number of patients with treatment-related AE: 1
  Weight decreased, number of patients with treatment-related AE: 1
30 mg QD (n = 3), G3
  Alanine aminotransferase increased, number of patients with treatment-related AE: 0
  Aspartate aminotransferase increased, number of patients with treatment-related AE: 0
  Blood bilirubin increased, number of patients with treatment-related AE: 0
  Cheilitis, number of patients with treatment-related AE: 0
  Conjunctivitis, number of patients with treatment-related AE: 0
  Decreased appetite, number of patients with treatment-related AE: 0
  Diarrhea, number of patients with treatment-related AE: 0
